Active and inactive are the calls of the source. How the calls were made is not given here.
Test system: rodent lifetime carcinogenesis bioassay, tumor incidence TD50
Experiment: carcinogenic potency in animals, long-term in vivo studies, CPDB compilation (AID 1745844)
Settings: rat, in drinking water

## O=NN(CCO)CCO
Strain F344/DuCrj, males, site: liver, lesion: one or several types, types not named, dosed 40 weeks, study length 78 weeks
  carcinogen call: negative (inactive)
Strain Fischer 344, females, site: esophagus, lesion: papilloma, dosed 55 weeks, study length 105 weeks
  TD50: 2050 mg/kg/day
Strain Fischer 344, females, site: kidney, lesion: one or several types, types not named, dosed 55 weeks, study length 105 weeks
  TD50: 327 mg/kg/day
Strain Fischer 344, females, site: kidney, lesion: several types, types named in the paper, dosed 75 weeks, study length 130 weeks
  TD50: 42.2 mg/kg/day
Strain Fischer 344, females, site: liver, lesion: cholangioadenoma/carcinoma, dosed 75 weeks, study length 130 weeks
  TD50: 56.8 mg/kg/day
Strain Fischer 344, females, site: liver, lesion: cholangiocarcinoma, dosed 55 weeks, study length 105 weeks
  TD50: 197 mg/kg/day
Strain Fischer 344, females, site: liver, lesion: hemangiosarcoma, dosed 50 weeks, study length 120 weeks
  TD50: 45.4 mg/kg/day
Strain Fischer 344, females, site: liver, lesion: hepatocellular carcinoma, dosed 50 weeks, study length 120 weeks
  TD50: 1.94 mg/kg/day
Strain Fischer 344, females, site: liver, lesion: hepatocellular carcinoma, dosed 55 weeks, study length 105 weeks
  TD50: 3.27 mg/kg/day
Strain Fischer 344, females, site: liver, lesion: hepatocellular carcinoma, dosed 75 weeks, study length 130 weeks
  TD50: 4.05 mg/kg/day
Strain Fischer 344, females, site: liver, lesion: neoplastic nodule, dosed 75 weeks, study length 130 weeks
  TD50: 2.93 mg/kg/day
Strain Fischer 344, females, site: liver, lesion: several types, types named in the paper, dosed 75 weeks, study length 130 weeks
  TD50: 1.9 mg/kg/day
Strain Fischer 344, females, site: nasal cavity, lesion: adenocarcinoma, dosed 55 weeks, study length 105 weeks
  TD50: 44.1 mg/kg/day
Strain Fischer 344, females, site: nasal cavity, lesion: olfactory carcinoma, dosed 55 weeks, study length 105 weeks
  TD50: 128 mg/kg/day
Strain Fischer 344, females, site: nasal cavity, lesion: squamous-cell carcinoma, dosed 55 weeks, study length 105 weeks
  TD50: 4320 mg/kg/day
Strain Fischer 344, males, site: esophagus, lesion: carcinoma, dosed 48 weeks, study length 95 weeks
  TD50: 432 mg/kg/day
Strain Fischer 344, males, site: esophagus, lesion: papilloma, dosed 48 weeks, study length 95 weeks
  TD50: 207 mg/kg/day
Strain Fischer 344, males, site: kidney, lesion: one or several types, types not named, dosed 48 weeks, study length 95 weeks
  TD50: 99.7 mg/kg/day
Strain Fischer 344, males, site: kidney, lesion: several types, types named in the paper, dosed 75 weeks, study length 125 weeks
  TD50: 19 mg/kg/day
Strain Fischer 344, males, site: liver, lesion: cholangioadenoma/carcinoma, dosed 75 weeks, study length 125 weeks
  TD50: 38.6 mg/kg/day
Strain Fischer 344, males, site: liver, lesion: cholangiocarcinoma, dosed 48 weeks, study length 95 weeks
  TD50: 23.9 mg/kg/day
Strain Fischer 344, males, site: liver, lesion: hepatocellular carcinoma, dosed 48 weeks, study length 95 weeks
  TD50: 2.77 mg/kg/day
Strain Fischer 344, males, site: liver, lesion: hepatocellular carcinoma, dosed 75 weeks, study length 125 weeks
  TD50: 9.03 mg/kg/day
Strain Fischer 344, males, site: liver, lesion: neoplastic nodule, dosed 75 weeks, study length 125 weeks
  TD50: 3.93 mg/kg/day
Strain Fischer 344, males, site: liver, lesion: several types, types named in the paper, dosed 75 weeks, study length 125 weeks
  TD50: 2.84 mg/kg/day
Strain Fischer 344, males, site: nasal cavity, lesion: adenocarcinoma, dosed 48 weeks, study length 95 weeks
  TD50: 15.5 mg/kg/day
Strain Fischer 344, males, site: nasal cavity, lesion: olfactory carcinoma, dosed 48 weeks, study length 95 weeks
  TD50: 50.4 mg/kg/day
Strain Fischer 344, males, site: nasal cavity, lesion: squamous-cell carcinoma, dosed 48 weeks, study length 95 weeks
  TD50: 280 mg/kg/day
Strain Sprague-Dawley, males, site: all sites, lesion: one or several types, types not named, dosed 162 weeks, study length 167 weeks
  TD50: 55.6 mg/kg/day
Strain Sprague-Dawley, males, site: any site (literature study), lesion: benign tumor, dosed 162 weeks, study length 167 weeks
  TD50: 7.93 mg/kg/day
Strain Sprague-Dawley, males, site: any site (literature study), lesion: malignant tumor, dosed 162 weeks, study length 167 weeks
  TD50: 23.5 mg/kg/day
Strain Sprague-Dawley, males, site: gastrointestinal tract, lesion: several types, types named in the paper, dosed 162 weeks, study length 167 weeks
  TD50: 143 mg/kg/day
Strain Sprague-Dawley, males, site: liver, lesion: cholangiocarcinoma, ductular, dosed 118 weeks, study length 147 weeks
  TD50: 10700 mg/kg/day
Strain Sprague-Dawley, males, site: liver, lesion: hemangioendothelioma, benign, dosed 162 weeks, study length 167 weeks
  TD50: 126 mg/kg/day
Strain Sprague-Dawley, males, site: liver, lesion: hepatocellular adenocarcinoma, dosed 118 weeks, study length 147 weeks
  TD50: 9.51 mg/kg/day
Strain Sprague-Dawley, males, site: liver, lesion: hepatocellular adenoma, dosed 162 weeks, study length 167 weeks
  TD50: 347 mg/kg/day
Strain Sprague-Dawley, males, site: liver, lesion: hepatocellular carcinoma, dosed 162 weeks, study length 167 weeks
  TD50: 70.4 mg/kg/day
Strain Sprague-Dawley, males, site: liver, lesion: several types, types named in the paper, dosed 118 weeks, study length 147 weeks
  TD50: 8.23 mg/kg/day
Strain Sprague-Dawley, males, site: liver, lesion: several types, types named in the paper, dosed 162 weeks, study length 167 weeks
  TD50: 38.4 mg/kg/day
Strain Sprague-Dawley, males, site: nasal cavity, lesion: olfactory neuroepithelioma, dosed 118 weeks, study length 147 weeks
  TD50: 679 mg/kg/day
Strain Sprague-Dawley, males, site: nasal cavity, lesion: several types, types named in the paper, dosed 118 weeks, study length 147 weeks
  TD50: 168 mg/kg/day
Strain Sprague-Dawley, males, site: nasal cavity, lesion: squamous-cell carcinoma, dosed 118 weeks, study length 147 weeks
  TD50: 954 mg/kg/day
Strain Sprague-Dawley, males, site: nervous system, lesion: one or several types, types not named, dosed 162 weeks, study length 167 weeks
  TD50: 42.5 mg/kg/day
